# How the values were obtained:
# [1] = molecular target: T1, G12D-mutant human KRAS (amino acid residues 1-188) (Homo sapiens, UniProt P01116, G12D); assay: KRAS Binding Disruption Assay (AlphaScreen; biotinylated KRpep-2d analogue or RAF1-RBD), G12D; conditions: KRAS G12D; geometric mean; read-out: KRAS GMean IC50 (uM) MUTATION: G12D
# T1 construct: G12D or G12C-mutant human KRAS (amino acid residues 1-188) with FLAG tag; made in house; host or cells: E. coli
# How it was run: (§1)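 Compounds are titrated against 5-20 nM mutant KRAS and 5-20 nM of either a biotinylated KRpep-2d analogue or RAF1-RBD, incubated 1 h at 25° C. Disruption is detected as reduced Alpha signal after 1 h with donor and acceptor beads at 10 μg/mL.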
# [2] = molecular target: T2, G12C-mutant human KRAS (amino acid residues 1-188) (Homo sapiens, UniProt P01116, G12C); assay: KRAS Binding Disruption Assay (AlphaScreen; biotinylated KRpep-2d analogue or RAF1-RBD), G12C; conditions: geometric mean, read-out: KRAS GMean IC50 (uM) MUTATION: G12C
# T2 construct: G12D or G12C-mutant human KRAS (amino acid residues 1-188) with FLAG tag; made in house; host or cells: E. coli
# How it was run: as §1
# T1 sequence (P01116 1-188 isoform P01116-2 G12D): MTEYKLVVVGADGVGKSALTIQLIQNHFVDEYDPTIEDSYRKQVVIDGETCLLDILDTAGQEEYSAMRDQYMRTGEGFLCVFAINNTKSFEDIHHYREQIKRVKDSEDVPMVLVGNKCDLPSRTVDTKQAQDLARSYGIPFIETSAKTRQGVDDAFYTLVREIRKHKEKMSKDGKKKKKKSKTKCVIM
# T2 sequence (P01116 1-188 isoform P01116-2 G12C): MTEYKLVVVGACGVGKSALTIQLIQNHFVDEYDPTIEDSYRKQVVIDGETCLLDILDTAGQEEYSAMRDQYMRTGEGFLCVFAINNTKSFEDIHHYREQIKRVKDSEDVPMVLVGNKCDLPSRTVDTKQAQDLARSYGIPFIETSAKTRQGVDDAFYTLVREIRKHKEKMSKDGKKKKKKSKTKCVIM
SMILES,IC50 [1] [µM],IC50 [2] [µM]
"CC(C)(O)COc1nc(N2C[C@H]3CC[C@@H](C2)N3)c2ccc(-c3cc(O)cc4ccccc34)c(F)c2n1 [P-0768, 4-(4-((1R,5S)-3,8-diazabicyclo[3.2.1]octan-3-yl)-8-fluoro-2-(2-hydroxy-2-methylpropoxy)quinazolin-7-yl)naphthalen-2-ol]",0.0001 to 10,10 to 100
"Oc1cc(-c2ccc3c(N4C[C@H]5CC[C@@H](C4)N5)nc(CCNc4ncccn4)nc3c2F)c2ccccc2c1 [P-0769, 4-(4-((1R,5S)-3,8-diazabicyclo[3.2.1]octan-3-yl)-8-fluoro-2-(2-(pyrimidin-2-ylamino)ethyl)quinazolin-7-yl)naphthalen-2-ol]",0.0001 to 10,10 to 100
"CC(=O)NCCc1nc(N2C[C@H]3CC[C@@H](C2)N3)c2ccc(-c3cc(O)cc4ccccc34)c(F)c2n1 [P-0770, N-(2-(4-((1R,5S)-3,8-diazabicyclo[3.2.1]octan-3-yl)-8-fluoro-7-(3-hydroxynaphthalen-1-yl)quinazolin-2-yl)ethyl)acetamide]",0.0001 to 10,10 to 100
"CS(=O)(=O)NCCc1nc(N2C[C@H]3CC[C@@H](C2)N3)c2ccc(-c3cc(O)cc4ccccc34)c(F)c2n1 [P-0771, N-(2-(4-((1R,5S)-3,8-diazabicyclo[3.2.1]octan-3-yl)-8-fluoro-7-(3-hydroxynaphthalen-1-yl)quinazolin-2-yl)ethyl)methanesulfonamide]",0.0001 to 10,10 to 100
"COc1ccc(CNCCc2nc(N3C[C@H]4CC[C@@H](C3)N4)c3ccc(-c4cc(O)cc5ccccc45)c(F)c3n2)cc1 [P-0772, 4-(4-((1R,5S)-3,8-diazabicyclo[3.2.1]octan-3-yl)-8-fluoro-2-(2-((4-methoxybenzyl)amino)ethyl)quinazolin-7-yl)naphthalen-2-ol]",0.0001 to 10,10 to 100
"CP(C)(=O)CC(=O)N1[C@@H]2CC[C@H]1CN(c1nc(OCC34CCCN3CCC4)nc3c(F)c(-c4cc(O)cc5ccccc45)ccc13)C2 [P-0773, 2-(dimethylphosphoryl)-1-((1R,5S)-3-(8-fluoro-7-(3-hydroxynaphthalen-1-yl)-2-((tetrahydro-1H-pyrrolizin-7a(5H)-yl)methoxy)quinazolin-4-yl)-3,8-diazabicyclo[3.2.1]octan-8-yl)ethan-1-one]",0.0001 to 10,0.0001 to 10
"Fc1cc2c(N3C[C@H]4CC[C@@H](C3)N4)nc(OCC34CCCN3CCC4)nc2c(F)c1-c1c[nH]c2ccc(Cl)c(Cl)c12 [P-0774, 4-((1R,5S)-3,8-diazabicyclo[3.2.1]octan-3-yl)-7-(4,5-dichloro-1H-indol-3-yl)-6,8-difluoro-2-((tetrahydro-1H-pyrrolizin-7a(5H)-yl)methoxy)quinazoline]",0.0001 to 10,0.0001 to 10
"Oc1cc(-c2ccc3c(N4C[C@H]5CC[C@@H](C4)N5)nc(OCC4CCCCO4)nc3c2F)c2ccccc2c1 (stereo partly drawn) [P-0775, 4-(4-((1R,5S)-3,8-diazabicyclo[3.2.1]octan-3-yl)-8-fluoro-2-((tetrahydro-2H-pyran-2-yl)methoxy)quinazolin-7-yl)naphthalen-2-ol]",0.0001 to 10,10 to 100
"Oc1cc(-c2ccc3c(N4C[C@H]5CC[C@@H](C4)N5)nc(OCC4CCCOC4)nc3c2F)c2ccccc2c1 (stereo partly drawn) [P-0776, 4-(4-((1R,5S)-3,8-diazabicyclo[3.2.1]octan-3-yl)-8-fluoro-2-((tetrahydro-2H-pyran-3-yl)methoxy)quinazolin-7-yl)naphthalen-2-ol]",0.0001 to 10,10 to 100
"Cc1cc(COc2nc(N3C[C@H]4CC[C@@H](C3)N4)c3ccc(-c4cc(O)cc5ccccc45)c(F)c3n2)no1 [P-0777, 4-(4-((1R,5S)-3,8-diazabicyclo[3.2.1]octan-3-yl)-8-fluoro-2-((5-methylisoxazol-3-yl)methoxy)quinazolin-7-yl)naphthalen-2-ol]",0.0001 to 10,10 to 100
"Oc1cc(-c2ccc3c(N4C[C@H]5CC[C@@H](C4)N5)nc(OCC4CC(F)(F)C4)nc3c2F)c2ccccc2c1 [P-0778, 4-(4-((1R,5S)-3,8-diazabicyclo[3.2.1]octan-3-yl)-2-((3,3-difluorocyclobutyl)methoxy)-8-fluoroquinazolin-7-yl)naphthalen-2-ol]",0.0001 to 10,10 to 100
"Oc1cc(-c2ccc3c(N4C[C@H]5CC[C@@H](C4)N5)nc(OCC4CCCCC4)nc3c2F)c2ccccc2c1 [P-0779, 4-(4-((1R,5S)-3,8-diazabicyclo[3.2.1]octan-3-yl)-2-(cyclohexylmethoxy)-8-fluoroquinazolin-7-yl)naphthalen-2-ol]",0.0001 to 10,10 to 100
"CN1CCC[C@H]1COc1nc(N2C[C@H]3CC[C@@H](C2)N3)c2cc(F)c(-c3c[nH]c4ncccc34)c(F)c2n1 [P-0780, 4-((1R,5S)-3,8-diazabicyclo[3.2.1]octan-3-yl)-6,8-difluoro-2-(((S)-1-methylpyrrolidin-2-yl)methoxy)-7-(1H-pyrrolo[2,3-b]pyridin-3-yl)quinazoline]",10 to 100,100 to 1000
"CN1CCC[C@H]1COc1nc(N2C[C@H]3CC[C@@H](C2)N3)c2ccc(-c3nccc4ccc(F)cc34)c(F)c2n1 [P-0781, 4-((1R,5S)-3,8-diazabicyclo[3.2.1]octan-3-yl)-8-fluoro-7-(7-fluoroisoquinolin-1-yl)-2-(((S)-1-methylpyrrolidin-2-yl)methoxy)quinazoline]",10 to 100,100 to 1000
"CN1CCC[C@H]1COc1nc(N2C[C@H]3CC[C@@H](C2)N3)c2ccc(-c3cccc4cccc(Cl)c34)c(F)c2n1 [P-0782, 4-((1R,5S)-3,8-diazabicyclo[3.2.1]octan-3-yl)-7-(8-chloronaphthalen-1-yl)-8-fluoro-2-(((S)-1-methylpyrrolidin-2-yl)methoxy)quinazoline]",0.0001 to 10,10 to 100
"CN1CCC[C@H]1COc1nc(N2C[C@H]3CC[C@@H](C2)N3)c2ccc(-c3cccc4ccccc34)c(F)c2n1 [P-0783, 4-((1R,5S)-3,8-diazabicyclo[3.2.1]octan-3-yl)-8-fluoro-2-(((S)-1-methylpyrrolidin-2-yl)methoxy)-7-(naphthalen-1-yl)quinazoline]",0.0001 to 10,100 to 1000
"OCCOc1nc(N2C[C@H]3CC[C@@H](C2)N3)c2ccc(-c3cc(O)cc4ccccc34)c(F)c2n1 [P-0784, 4-(4-((1R,5S)-3,8-diazabicyclo[3.2.1]octan-3-yl)-8-fluoro-2-(2-hydroxyethoxy)quinazolin-7-yl)naphthalen-2-ol]",0.0001 to 10,10 to 100
"CC1(COc2nc(N3C[C@H]4CC[C@@H](C3)N4)c3ccc(-c4cc(O)cc5ccccc45)c(F)c3n2)COC1 [P-0785, 4-(4-((1R,5S)-3,8-diazabicyclo[3.2.1]octan-3-yl)-8-fluoro-2-((3-methyloxetan-3-yl)methoxy)quinazolin-7-yl)naphthalen-2-ol]",100 to 1000,100 to 1000
"Cn1cncc1COc1nc(N2C[C@H]3CC[C@@H](C2)N3)c2ccc(-c3cc(O)cc4ccccc34)c(F)c2n1 [P-0786, 4-(4-((1R,5S)-3,8-diazabicyclo[3.2.1]octan-3-yl)-8-fluoro-2-((1-methyl-1H-imidazol-5-yl)methoxy)quinazolin-7-yl)naphthalen-2-ol]",0.0001 to 10,0.0001 to 10
"Oc1cc(-c2ccc3c(N4C[C@H]5CC[C@@H](C4)N5)nc(OC4CCC(O)CC4)nc3c2F)c2ccccc2c1 (stereo partly drawn) [P-0787, 4-(4-((1R,5S)-3,8-diazabicyclo[3.2.1]octan-3-yl)-8-fluoro-2-((4-hydroxycyclohexyl)oxy)quinazolin-7-yl)naphthalen-2-ol]",0.0001 to 10,10 to 100

# Reference: US20230081426A1, “COMPOUNDS AND METHODS FOR KRAS MODULATION AND INDICATIONS THEREFOR” (Plexxikon Inc., priority 2020, published 2023)
